Data reported in patent US10807957B2, “Tetradentate chelating monoquinoline derivative, manufacturing method thereof, and application of same as metal ion regulator for neurodegenerative disease” (GUANGDONG UNIVERSITY OF TECHNOLOGY, priority 2016, dated 2020).

Assay: Affinity constants for Cu2+ by competitive chelation with UV/Vis monitoring
Format: binding
Conditions: Cu2+ versus Zn2+, pH 7.4
Experimental: Estimation of affinity constants of compounds of general formula (I) with metal ions: […]
Affinity Constants for Cu^2:
The following mother solutions were prepared: (A) ligand L=TDMQ-n, 300 μM in 20 mM Tris.HCl pH 7.4, 150 mM NaCl; (B) Competing ligands (namely NTA, EDTA, EDDA, EGTA, or CDTA), 300 μM in 20 mM Tris.HCl pH 7.4, 150 mM NaCl; (C) CuCl2, 15 mM in H2O. In the UV/Vis cuvette, 100 μL of (A), 100 μL of (B), 1800 μL of 20 mM Tris.HCl pH 7.4, 150 mM NaCl, and 2 μL of (C) were added in that order. The final concentrations of L, Competing ligand (LC), and Cu^2+ were 15 μM.
The spectrum of the ligand L (2 μL of H2O instead of 2 μL of (C)) was recorded according to above conditions; and the spectrum of [Cu^2+−L] (100 μL of 20 mM Tris.HCl pH 7.4, 150 mM NaCl, instead of 100 μL of (B)) was recorded according to above conditions. All ligands and complexes studied followed the Beer-Lambert law in the experimental conditions used.
The equations of complexation are as follows: […]
It can be deduced that at the equilibrium:
UV/Vis monitoring at 383 nm allowed to determine the absorbance of the competitive chelation mixture (Amix), the absorbance of L in the absence of Cu^2+ (AL), and the absorbance of CuL in the absence of competing ligand (ACu-L). The proportion of Cu^2+ chelated by L was calculated as x=(AL-Amix)/(AL-ACu-L). Experiments were performed in triplicate.

Row | Compound | difference between binding constants for copper and zinc
1 | CN(C)CCCNCc1ccc2c(Cl)cc(Cl)c(N)c2n1 [TDMQ-19, N^1-((8-amino-5,7-dichloroquinolin-2-yl)methyl)-N^3,N3-dimehypropane-1,3-diamine] | 10 orders of magnitude
2 | CN(C)CCNCCc1ccc2c(Cl)cc(Cl)c(N)c2n1 [TDMQ-20, N^1-(2-(8-amino-5,7-dichloroquinolin-2-yl)ethyl)-N^2,N^2-dimethylethane-1,2-diamine] | 12 orders of magnitude
